# Patent publication US20170303817A1, “SURGICAL ARTICLES AND METHODS FOR DETECTION” (GEORGIA STATE UNIVERSITY RESEARCH FOUNDATION, INC., priority 2014, published 2017)
# Legend:
# [1] = NIR dye leaching from sponges: fluorescence of canine blood samples; conditions: for fluorescence of test canine blood sample (ICG leaching): blood and DMSO in a 1:3 ratio
# [2] = In vivo detection of ICG sponge in canine surgical site, 780 nm laser; parameters: species or system dog; conditions: FIG. 7
# Experimental: Method: A stray female dog (Doberman […]) underwent an ovariohysterectomy procedure. After making an incision in the dog's abdomen, a standard 4×4 surgical gauze was placed inside the surgical site and allowed to become saturated with blood. A 780 nm laser was focused on a portion of the gauze and the area photographed and observed for excitation. This experiment was repeated using a sponge soaked in 1 mM ICG dye solution for 1 hr and a sponge soaked in 1 mM ICG dye solution for 24 hrs. Prior to in vivo use, the sponges first underwent sterilization: Steam sterilization at 350° F. for 20 min and gas sterilization in ethylene oxide for 12-24 hr.
structure (smiles),measurement,setting,value
"CC1(C)C(/C=C/C=C/C=C/C=C2\N(CCCCS(=O)(=O)O)c3ccc4ccccc4c3C2(C)C)=[N+](CCCCS(=O)(=O)[O-])c2ccc3ccccc3c21 [ICG, indocyanine green]",fluorescence of test canine blood sample (ICG leaching),[1]; 1 hr after sponge placement,no fluorescence
same,fluorescence of test canine blood sample (ICG leaching),[1]; 4 hours after sponge placement,no fluorescence
same,fluorescence wavelength in control canine blood sample,"[1]; canine blood spiked with 0.1 mM solution of ICG in DMSO, FIG. 8",815 nm
same,fluorescence of sponge soaked for 24 hrs compared to sponge soaked for 1 hr,[2]; 1 mM ICG dye solution,increase in florescence
same,fluorescence of treated sponge compared to the untreated sponge,[2]; sponge treated with 1 mM ICG solution,significant increase in the fluorescence
